Assay results from US8062681B2, “Amino acid oligomer dietary supplement” (The Curators Of The University Of Missouri, priority 2006, dated 2011).
Marks after values point to notes of the source that are not given here.

System: rumen fluid

- Supplemental Methionine Recovered: 12.25^c %
Compound: CSCCC(N)C(=O)O (centres unmarked) [D, L Met, D,L Methionine]
- MOEFF (microbial efficiency) (continuous culture fermenters, .045 g/d supplement with 45 g/d soyhulls): 9.11 grams of bacterial nitrogen per kilogram organic matter fermented
